System: normal human umbilical vein endothelial cell (HUVEC)
Assay: NO production (nitrite in culture supernatant by HPLC) in HUVEC
Format: cell-based
Conditions: citrulline final concentration 0.3 mM, 24-hour culture, vs control (PBS)
Method: The cells were cultured in at 37° C., in 5% CO2 incubator, and used for experiment after 4 to 6 passages. Citrulline and reduced glutathione were obtained from Kyowa Hakko Bio.
A cell suspension (0.45 mL) with the adjusted initial cell concentration of 5×10^5 cells/mL was inoculated in a 24-well plate (IWAKI). After 40-hour culture, the media were replaced with those containing citrulline (final concentration 0.3 mM: citrulline group), reduced glutathione (final concentration 1 mM: high-dose glutathione group), and a citrulline and reduced glutathione mixture (citrulline final concentration 0.3 mM; glutathione final concentration 0.3 mM: citrulline+low-dose glutathione group). Media with the sole addition of solvent (PBS) were used as a control group. After 24-hour culture, the cell culture (100 μL) was centrifuged at 12,000 rpm for 10 minutes, and the concentration of nitrite (NO2), which is the stable NO metabolite, in culture supernatant was quantified by HPLC (ENO-20, EICOM).

## NC(=O)NCCC[C@H](N)C(=O)O [citrulline]
  effect on NO production (concentration of nitrite (NO2) in culture supernatant): no effect

Reference: US20150011463A1, “AGENT FOR PREVENTING OR AM[…] ENDOTHELIAL MALFUNCTION” (KYOWA HAKKO BIO CO., LTD., priority 2012, published 2015)
